Data published in ChEMBL document CHEMBL4507259 (2021).

How the values were obtained:
[1] = target: Mitogen-activated protein kinase 11 (Homo sapiens) (UniProt Q15759); conditions: Compound concentration 1000.0 nM
[2] = target: Serine/threonine-protein kinase PAK 2 (Homo sapiens) (UniProt Q13177); conditions: Compound concentration 1000.0 nM
[3] = target: Adenosine receptor A2b (Homo sapiens) (UniProt P29275); assay: A2B (h) CEREP ligand profiling; conditions: filed as antagonist, Compound concentration 10.0 uM
[4] = target: Activin receptor type-1 (Homo sapiens) (UniProt Q04771); conditions: Compound concentration 1000.0 nM
Chain of Activin receptor type-1 (Homo sapiens) (Q04771 whole entry): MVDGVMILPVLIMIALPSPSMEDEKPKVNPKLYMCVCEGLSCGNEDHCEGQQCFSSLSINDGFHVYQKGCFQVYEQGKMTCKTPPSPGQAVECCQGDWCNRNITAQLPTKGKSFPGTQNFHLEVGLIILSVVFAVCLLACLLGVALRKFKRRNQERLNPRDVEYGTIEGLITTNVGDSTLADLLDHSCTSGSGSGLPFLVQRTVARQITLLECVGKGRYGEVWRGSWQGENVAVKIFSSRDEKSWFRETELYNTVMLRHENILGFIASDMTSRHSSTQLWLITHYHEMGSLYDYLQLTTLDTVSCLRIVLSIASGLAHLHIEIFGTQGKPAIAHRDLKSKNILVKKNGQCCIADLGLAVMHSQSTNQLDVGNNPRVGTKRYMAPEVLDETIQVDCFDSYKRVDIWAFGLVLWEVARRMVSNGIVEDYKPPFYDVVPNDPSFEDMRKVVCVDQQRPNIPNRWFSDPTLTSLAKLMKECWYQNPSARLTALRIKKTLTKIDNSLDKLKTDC

[5] = target: Serine/threonine-protein kinase N1 (Homo sapiens) (UniProt Q16512); conditions: Compound concentration 1000.0 nM
Chain of Serine/threonine-protein kinase N1 (Homo sapiens) (Q16512 2-942 limits assumed): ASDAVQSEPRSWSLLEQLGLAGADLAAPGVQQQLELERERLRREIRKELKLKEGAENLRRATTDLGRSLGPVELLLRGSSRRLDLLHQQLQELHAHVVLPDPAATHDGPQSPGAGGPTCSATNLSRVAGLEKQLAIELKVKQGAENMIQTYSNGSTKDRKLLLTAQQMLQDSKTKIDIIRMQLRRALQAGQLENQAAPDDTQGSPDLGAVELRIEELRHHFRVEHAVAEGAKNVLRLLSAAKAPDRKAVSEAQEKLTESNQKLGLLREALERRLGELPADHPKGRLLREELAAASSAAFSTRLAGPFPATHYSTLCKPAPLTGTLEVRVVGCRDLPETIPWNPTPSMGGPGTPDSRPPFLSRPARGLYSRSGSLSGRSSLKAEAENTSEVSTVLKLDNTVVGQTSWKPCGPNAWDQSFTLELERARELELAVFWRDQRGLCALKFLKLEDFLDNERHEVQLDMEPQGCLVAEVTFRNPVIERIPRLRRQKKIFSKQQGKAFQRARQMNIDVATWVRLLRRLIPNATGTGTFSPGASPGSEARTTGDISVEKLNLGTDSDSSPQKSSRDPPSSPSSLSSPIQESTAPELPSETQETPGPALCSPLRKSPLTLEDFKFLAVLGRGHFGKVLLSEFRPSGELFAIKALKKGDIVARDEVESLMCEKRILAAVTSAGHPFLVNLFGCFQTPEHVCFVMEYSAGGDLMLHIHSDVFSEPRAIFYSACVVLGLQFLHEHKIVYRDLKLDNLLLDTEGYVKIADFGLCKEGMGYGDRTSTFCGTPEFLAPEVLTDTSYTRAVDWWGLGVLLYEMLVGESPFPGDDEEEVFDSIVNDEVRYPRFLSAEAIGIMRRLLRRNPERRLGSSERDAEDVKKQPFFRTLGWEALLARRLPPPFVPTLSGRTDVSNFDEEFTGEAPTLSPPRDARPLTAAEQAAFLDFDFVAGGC

[6] = target: Dual specificity mitogen-activated protein kinase kinase 1 (Homo sapiens) (UniProt Q02750); conditions: Compound concentration 1000.0 nM
[7] = target: Neuropeptide Y receptor type 1 (Homo sapiens) (UniProt P25929); assay: Y1 (h) CEREP ligand profiling; conditions: filed as agonist, Compound concentration 10.0 uM
Chain of Neuropeptide Y receptor type 1 (Homo sapiens) (P25929 whole entry): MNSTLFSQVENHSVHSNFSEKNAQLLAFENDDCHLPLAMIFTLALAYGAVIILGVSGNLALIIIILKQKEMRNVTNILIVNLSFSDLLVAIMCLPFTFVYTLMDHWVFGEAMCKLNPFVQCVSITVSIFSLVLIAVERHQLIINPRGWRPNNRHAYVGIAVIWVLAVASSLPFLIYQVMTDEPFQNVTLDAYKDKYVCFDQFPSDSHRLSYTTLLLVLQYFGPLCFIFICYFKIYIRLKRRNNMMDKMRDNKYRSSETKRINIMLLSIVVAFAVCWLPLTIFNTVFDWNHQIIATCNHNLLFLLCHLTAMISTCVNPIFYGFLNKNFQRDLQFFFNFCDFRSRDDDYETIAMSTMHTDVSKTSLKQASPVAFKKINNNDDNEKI

[8] = target: Cyclin-dependent kinase 9 (Homo sapiens) (UniProt P50750); conditions: Compound concentration 1000.0 nM
Chain of Cyclin-dependent kinase 9 (Homo sapiens) (P50750 whole entry): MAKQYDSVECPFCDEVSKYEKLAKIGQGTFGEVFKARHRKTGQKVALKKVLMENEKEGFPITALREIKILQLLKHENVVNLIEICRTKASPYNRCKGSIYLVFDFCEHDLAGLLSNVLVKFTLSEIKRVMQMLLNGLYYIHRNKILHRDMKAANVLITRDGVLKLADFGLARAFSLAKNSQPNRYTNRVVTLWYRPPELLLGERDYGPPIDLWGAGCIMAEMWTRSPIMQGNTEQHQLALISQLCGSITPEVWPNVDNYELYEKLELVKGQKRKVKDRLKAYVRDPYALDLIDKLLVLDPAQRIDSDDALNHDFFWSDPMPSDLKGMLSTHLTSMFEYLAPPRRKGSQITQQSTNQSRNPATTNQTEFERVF

[9] = target: Insulin-like growth factor 1 receptor (Homo sapiens) (UniProt P08069); conditions: Compound concentration 1000.0 nM
[10] = target: Tyrosine-protein kinase JAK1 (Homo sapiens) (UniProt P23458); conditions: Compound concentration 1000.0 nM
[11] = target: Ephrin type-A receptor 8 (Homo sapiens) (UniProt P29322); conditions: Compound concentration 1000.0 nM
Chain of Ephrin type-A receptor 8 (Homo sapiens) (P29322 whole entry): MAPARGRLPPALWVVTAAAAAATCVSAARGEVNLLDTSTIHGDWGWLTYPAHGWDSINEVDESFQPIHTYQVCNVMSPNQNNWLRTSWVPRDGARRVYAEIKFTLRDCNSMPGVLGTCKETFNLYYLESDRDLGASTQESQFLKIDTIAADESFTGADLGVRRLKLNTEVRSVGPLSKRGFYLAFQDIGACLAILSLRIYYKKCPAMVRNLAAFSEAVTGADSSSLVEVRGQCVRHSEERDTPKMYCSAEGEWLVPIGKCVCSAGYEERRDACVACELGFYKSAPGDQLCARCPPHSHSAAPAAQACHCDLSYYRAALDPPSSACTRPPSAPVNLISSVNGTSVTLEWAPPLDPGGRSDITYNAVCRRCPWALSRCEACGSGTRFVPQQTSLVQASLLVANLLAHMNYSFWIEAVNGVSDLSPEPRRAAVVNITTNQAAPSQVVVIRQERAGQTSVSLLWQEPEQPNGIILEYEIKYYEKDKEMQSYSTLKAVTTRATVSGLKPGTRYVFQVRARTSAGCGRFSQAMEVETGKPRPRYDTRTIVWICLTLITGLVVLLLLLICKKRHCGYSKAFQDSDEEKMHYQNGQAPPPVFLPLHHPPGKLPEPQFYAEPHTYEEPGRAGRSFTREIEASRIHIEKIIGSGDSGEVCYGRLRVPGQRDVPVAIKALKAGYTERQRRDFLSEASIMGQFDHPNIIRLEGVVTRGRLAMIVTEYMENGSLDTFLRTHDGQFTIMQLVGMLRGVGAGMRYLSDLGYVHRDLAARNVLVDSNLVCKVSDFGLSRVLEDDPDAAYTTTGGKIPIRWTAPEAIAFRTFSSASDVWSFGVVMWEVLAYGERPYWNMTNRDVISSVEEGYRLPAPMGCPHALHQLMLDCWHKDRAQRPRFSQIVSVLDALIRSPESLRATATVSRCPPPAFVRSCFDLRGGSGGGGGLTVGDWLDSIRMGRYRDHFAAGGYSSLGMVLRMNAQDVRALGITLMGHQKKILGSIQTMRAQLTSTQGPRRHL

[12] = target: Receptor-type tyrosine-protein kinase FLT3 (Homo sapiens) (UniProt P36888); conditions: Compound concentration 1000.0 nM
Chain of Receptor-type tyrosine-protein kinase FLT3 (Homo sapiens) (P36888 whole entry): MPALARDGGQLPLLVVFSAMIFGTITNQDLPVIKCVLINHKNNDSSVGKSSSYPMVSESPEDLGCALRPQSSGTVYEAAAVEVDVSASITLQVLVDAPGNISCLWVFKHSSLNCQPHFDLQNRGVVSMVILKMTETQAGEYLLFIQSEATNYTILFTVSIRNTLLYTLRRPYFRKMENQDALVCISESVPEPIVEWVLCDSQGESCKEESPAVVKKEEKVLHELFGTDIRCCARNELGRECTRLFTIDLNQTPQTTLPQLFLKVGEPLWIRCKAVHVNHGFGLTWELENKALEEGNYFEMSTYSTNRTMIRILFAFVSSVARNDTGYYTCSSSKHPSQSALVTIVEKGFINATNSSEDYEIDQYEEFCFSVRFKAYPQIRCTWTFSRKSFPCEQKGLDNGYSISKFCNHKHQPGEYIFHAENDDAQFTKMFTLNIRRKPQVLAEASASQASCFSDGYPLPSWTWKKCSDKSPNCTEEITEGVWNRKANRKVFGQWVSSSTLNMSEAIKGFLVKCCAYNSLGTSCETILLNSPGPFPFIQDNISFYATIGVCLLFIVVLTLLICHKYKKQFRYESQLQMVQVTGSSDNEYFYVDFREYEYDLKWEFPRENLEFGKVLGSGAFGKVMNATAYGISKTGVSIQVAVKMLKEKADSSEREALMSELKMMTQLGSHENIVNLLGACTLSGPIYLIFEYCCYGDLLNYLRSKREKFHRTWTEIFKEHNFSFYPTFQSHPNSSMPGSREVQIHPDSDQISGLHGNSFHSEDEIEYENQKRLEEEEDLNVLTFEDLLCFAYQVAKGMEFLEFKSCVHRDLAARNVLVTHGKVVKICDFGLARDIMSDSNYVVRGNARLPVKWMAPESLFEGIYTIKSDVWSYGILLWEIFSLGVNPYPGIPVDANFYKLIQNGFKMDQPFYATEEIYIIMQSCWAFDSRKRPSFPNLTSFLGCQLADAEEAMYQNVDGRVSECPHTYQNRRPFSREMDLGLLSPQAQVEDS

[13] = target: Mu-type opioid receptor (Homo sapiens) (UniProt P35372); conditions: Compound concentration 10.0 uM
Chain of Mu-type opioid receptor (Homo sapiens) (P35372 whole entry): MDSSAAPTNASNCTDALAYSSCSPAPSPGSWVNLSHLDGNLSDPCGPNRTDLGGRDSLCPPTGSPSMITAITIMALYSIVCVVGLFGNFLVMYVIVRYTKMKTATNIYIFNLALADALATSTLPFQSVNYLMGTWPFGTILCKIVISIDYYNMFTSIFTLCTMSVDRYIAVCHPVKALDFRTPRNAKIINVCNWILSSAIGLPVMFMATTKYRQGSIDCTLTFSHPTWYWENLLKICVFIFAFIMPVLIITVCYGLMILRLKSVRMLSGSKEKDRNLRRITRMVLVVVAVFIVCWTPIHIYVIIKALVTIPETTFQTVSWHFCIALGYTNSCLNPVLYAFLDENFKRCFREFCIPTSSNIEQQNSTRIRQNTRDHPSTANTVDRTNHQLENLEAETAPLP

[14] = target: CREB-binding protein/Histone acetyltransferase p300 (Homo sapiens, UniProt Q09472+Q92793); assay: Inhibition of H3K27Ac (LnCaP-FGC); assay type: cell-based; conditions: lncap-clone-fgc

Chain of Mitogen-activated protein kinase 11 (Homo sapiens) (Q15759 whole entry): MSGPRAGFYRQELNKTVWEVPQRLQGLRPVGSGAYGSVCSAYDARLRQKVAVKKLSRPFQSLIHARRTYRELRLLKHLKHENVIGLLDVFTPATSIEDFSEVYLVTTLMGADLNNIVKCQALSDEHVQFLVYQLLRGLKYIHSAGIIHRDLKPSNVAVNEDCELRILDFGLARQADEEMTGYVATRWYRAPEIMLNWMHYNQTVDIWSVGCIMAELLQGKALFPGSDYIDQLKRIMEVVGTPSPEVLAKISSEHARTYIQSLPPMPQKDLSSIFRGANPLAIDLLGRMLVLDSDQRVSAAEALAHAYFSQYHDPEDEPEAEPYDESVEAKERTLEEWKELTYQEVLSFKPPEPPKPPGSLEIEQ

`CNC(=O)Nc1ccc2c(c1)[C@@]1(CC2)OC(=O)N(CC(=O)N(Cc2ccc(F)cc2)[C@@H](C)C(F)(F)F)C1=O` [A-486] gave a residual activity [1] of 100%, a residual activity [2] of 94% and an inhibition [3] of 1%. It also gave a residual activity [4] of 89%, a residual activity [5] of 98% and a residual activity [6] of 98%. For the same compound, the inhibition [7] was -10%, the residual activity [8] was 91% and the residual activity [9] was 100%. The residual activity [10] was 93%, the residual activity [11] was 96% and the residual activity [12] was 92%. For the same compound, the inhibition [13] was -5.11% and the IC50 [14] was greater than 10 µM.
